pIC50: −log10 of the molar value. Where “and” joins values, the source holds several entries; their conditions need not be identical. Equal entries are not always repeated. Entries after “also recorded” stand apart in the source; their conditions may differ. Where two headings read alike, the source gives them in different places. Marks after values point to notes of the source that are not given here.
Target: T1, EphrinB2-EphB4 (Homo sapiens, UniProt P54760)
T1 construct: soluble human EphB1-His, EphB2-His, and EphB4-His ectodomains; commercially available human EphrinB1-Fc (EB1), EphrinB2-Fc (EB2), and EphrinB3-Fc (EB3) ectodomain proteins; purchased
T1 sequence (P54760 16-539 limits assumed): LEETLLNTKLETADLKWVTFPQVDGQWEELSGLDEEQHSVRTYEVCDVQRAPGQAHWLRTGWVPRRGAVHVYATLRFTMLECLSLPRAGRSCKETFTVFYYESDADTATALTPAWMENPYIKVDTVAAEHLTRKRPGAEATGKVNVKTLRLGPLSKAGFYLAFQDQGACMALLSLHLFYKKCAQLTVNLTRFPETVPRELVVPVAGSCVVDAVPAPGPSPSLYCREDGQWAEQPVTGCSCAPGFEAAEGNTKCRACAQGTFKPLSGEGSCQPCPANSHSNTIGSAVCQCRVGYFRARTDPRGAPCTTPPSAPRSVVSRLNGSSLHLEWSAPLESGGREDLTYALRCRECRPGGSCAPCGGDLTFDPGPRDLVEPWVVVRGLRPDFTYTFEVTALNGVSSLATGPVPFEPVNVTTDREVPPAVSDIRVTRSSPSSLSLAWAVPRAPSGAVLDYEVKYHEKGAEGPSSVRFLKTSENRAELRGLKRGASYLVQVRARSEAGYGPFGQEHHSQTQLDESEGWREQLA
Experiment: Octet 80 sec association/500 sec dissociation, immobilized human EphrinB2-Fc binding to soluble human EphB4-His
Conditions: for inhibition at 3.2 µM / % Inhibited (AUC), Association + Dissociation / % Inhibited (AUC), Association / inhibition / pIC50: EphB4; for inhibition at 3.2 µM: 25 nM EphB4, 3.2 μM compound, A20-I as max control, 0* = less than 0, no inhibition; for EphB4 Inhibition Percent, Inhibition of Association ONLY: at 3.2 μM and 80 seconds; for EphB4 Inhibition Percent, Inhibition of Association ONLY / EphB4 Inhibition Percent, Inhibition of Association-Dissociation: immobilized human EphrinB2, 25 nM soluble human EphB4; for EphB4 Inhibition Percent, Inhibition of Association-Dissociation: at 3.2 μM and 580 seconds; for % Inhibited (AUC), Association + Dissociation: 0-160 sec; for % Inhibited (AUC), Association + Dissociation / % Inhibited (AUC), Association: 50 nM, 10 μM compound, Table 4
Outline: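 EphrinB2-Fc captured on AHC biosensors, then soluble His-tagged EphB ectodomain (25 nM for % inhibition runs) associated 80 s and dissociated 500 s in PBS, 0.05% Tween-20, 1% DMSO ± compound. Compounds tested at 0.1–3.2 μM with a 10 μM max standard; IC50 from AUC of full traces or at 75 s and 135 s.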

[1] = read-out: % Inhibition: Association + Dissociation (160 sec)
[2] = read-out: % Inhibition: Association ONLY (80 sec)
[3] = Association (75″), read-out: Absolute IC50
[4] = Association (75″), read-out: Relative IC50
[5] = Association (AUC), read-out: Absolute IC50
[6] = Association (AUC), read-out: Relative IC50
[7] = Dissociation (135″), read-out: Absolute IC50
[8] = Dissociation (135″), read-out: Relative IC50
[9] = Full AUC, read-out: Absolute IC50
[10] = Full AUC, read-out: Relative IC50
[11] = highest dose, typically 3.2 μM, read-out: Association (% Inhibited (AUC))
[12] = highest dose, typically 3.2 μM, read-out: Association + Dissociation (% Inhibited (AUC))

SMILES	inhibition at 3.2 µM [1] [%]	inhibition at 3.2 µM [2] [%]	EphB4 Inhibition Percent, Inhibition of Association ONLY	EphB4 Inhibition Percent, Inhibition of Association-Dissociation	also measured
Oc1c(Cl)cc(CN2CCOCC2)c2cccnc12 [Compound 3, 7-chloro-5-(morpholinomethyl)quinolin-8-ol]	35.5	16.8	–	–	–
Oc1c(Cl)cc(CN2CCOCC2)c2cccnc12 [Compound 4, 4-((7-chloro-8-hydroxyquinolin-1-ium-5-yl)methyl)morpholin-4-ium chloride]	–	–	16.8%	35.5%	–
Oc1c(Br)cc(CN2CCOCC2)c2cccnc12 [Compound 5, 7-bromo-5-(morpholinomethyl)quinolin-8-ol]	23	0	–	–	–
Oc1c(Br)cc(CN2CCOCC2)c2cccnc12 [Compound 6, 4-((7-bromo-8-hydroxyquinolin-1-ium-5-yl)methyl)morpholin-4-ium chloride]	–	–	20.0%	35.9%	–
Oc1c(I)cc(CN2CCOCC2)c2cccnc12 [Compound 7, 7-iodo-5-(morpholinomethyl)quinolin-8-ol]	32.9	–	–	–	% Inhibited (AUC), Association + Dissociation: 26.5%; % Inhibited (AUC), Association: 13.3%; inhibition (10 μM 2×HCl salt, read-out: % Inhibited (AUC), Association): 13.9%; pIC50 [3]: < 5.49; pIC50 [4]: 5.77; pIC50 [5]: < 5.49; pIC50 [6]: 5.78; pIC50 [7]: 5.52; pIC50 [8]: 6.01; pIC50 [9]: 5.90; pIC50 [10]: 6.05; inhibition (first 160 sec, 10 μM 2×HCl salt, read-out: % Inhibited (AUC), Association + Dissociation): 33.9%; inhibition [11]: 15.4%; inhibition [12]: 37%
O=[N+]([O-])c1cc(CN2CCOCC2)c2cccnc2c1O [Compound 9, 5-(morpholinomethyl)-7-nitroquinolin-8-ol]	–	–	0.6% and 0% and 8.2%	–	less % inhibition activity toward EphrinB2-EphB4 (3.2 μM): approximately 20 fold; selectivity among EphrinB2-EphB1/B2/B4 (3.2 μM, listed as A19-NO2): selectively inhibit EphrinB2-EphB2 and EphrinB2-EphB1 interactions, while sparing most of the EphrinB2-EphB4 interaction; also recorded: less action towards EphB4 but high specificity for EphB1 and EphB2; inhibition of EphB4-EphrinB2 binding (association step, general): 0%
O=[N+]([O-])c1cc(CN2CCOCC2)c2cccnc2c1O [Compound 10, 4-((8-hydroxy-7-nitroquinolin-1-ium-5-yl)methyl)morpholin-4-ium chloride]	–	–	0.1% and 0% and 4.1%	9.0% and 0% and 5.9%	–
OCc1ccc2c(CN3CCOCC3)cc(Br)c(O)c2n1 [Compound 13, 7-bromo-2-(hydroxymethyl)-5-(morpholinomethyl)quinolin-8-ol]	7.6	0	–	–	–
O=S1(=O)CCN(Cc2ccc(O)c3ncccc23)CC1 [Compound 15, 4-((8-hydroxyquinolin-1-ium-5-yl)methyl)thiomorpholin-4-ium 1,1-dioxide chloride]	–	–	10.8%	19.0%	–
O=[N+]([O-])c1cc(CN2CCS(=O)(=O)CC2)c2cccnc2c1O [Compound 20, 4-((8-hydroxy-7-nitroquinolin-5-yl)methyl)thiomorpholine 1,1-dioxide]	0	0	–	–	selectivity among EphrinB2-EphB1/B2/B4 (3.2 μM, listed as QTM-NO2): ability to selectively inhibit EphrinB2-EphB2 and EphrinB2-EphB1 interactions, while sparing the EphrinB2-EphB4 interaction; also recorded: less action towards EphB4 but high specificity for EphB1 and EphB2
Oc1ccc(CN2CCN(c3ccc(Br)cc3)CC2)c2cccnc12 [Compound 26, 5-((4-(4-bromophenyl)piperazin-1-yl)methyl)quinolin-8-ol]	–	–	0*%	0*%	selectivity among EphrinB2-EphB1/B2/B4 (3.2 μM, listed as QPB4): ability to selectively inhibit EphrinB2-EphB2 and EphrinB2-EphB1 interactions, while sparing the EphrinB2-EphB4 interaction; also recorded: less action towards EphB4 but high specificity for EphB1 and EphB2
Oc1c(Br)cc(CN2CCN(c3ccc(Br)cc3)CC2)c2cccnc12 [Compound 28, 7-bromo-5-((4-(4-bromophenyl)piperazin-1-yl)methyl)quinolin-8-ol]	–	–	–	–	% Inhibited (AUC), Association + Dissociation: 29.3%; % Inhibited (AUC), Association: 16.6%; pIC50 [3]: < 5.49; pIC50 [4]: 7.10; pIC50 [5]: < 5.49; pIC50 [6]: 6.92; pIC50 [7]: 6.11; pIC50 [8]: 6.70; pIC50 [9]: 6.49; pIC50 [10]: 6.59; inhibition [11]: 12.5%; inhibition [12]: 36.4%
Oc1c(Br)cc(CN2CCN(c3ccc(Br)cc3)CC2)c2cccnc12 [Compound 30, 7-bromo-5-((4-(4-bromophenyl)piperazin-1-ium-1-yl)methyl)-8-hydroxyquinolin-1-ium chloride]	–	–	16.6% and 12.5%	29.3% and 36.4%	–
Oc1ccc(CN2CCN(c3ccc(Br)cn3)CC2)c2cccnc12 [Compound 33, 5-((4-(5-bromopyridin-2-yl)piperazin-1-yl)methyl)quinolin-8-ol]	36.9	20.9	–	–	–
Oc1ccc(CN2CCN(Cc3ccccc3)CC2)c2cccnc12 [Compound 41, 5-((4-benzylpiperazin-1-yl)methyl)quinolin-8-ol]	2.6	0	–	–	selectivity among EphrinB2-EphB1/B2/B4 (3.2 μM, listed as QPBN): more selective for EphB1
Oc1ccc(CN2CCN(Cc3ccc(Br)cc3)CC2)c2cccnc12 [Compound 42, 5-((4-(4-bromobenzyl)piperazin-1-yl)methyl)quinolin-8-ol]	0	0	–	–	selectivity among EphrinB2-EphB1/B2/B4 (3.2 μM): ability to selectively inhibit EphrinB2-EphB2 and EphrinB2-EphB1 interactions, while sparing the EphrinB2-EphB4 interaction
Oc1c(Br)cc(CN2CCN(Cc3ccc(Br)cc3)CC2)c2cccnc12 [Compound 44, 7-bromo-5-((4-(4-bromobenzyl)piperazin-1-yl)methyl)quinolin-8-ol]	28.3	4.9	–	–	–
Oc1ccc(CN2CCN(Cc3ccc(C(F)(F)F)cc3)CC2)c2cccnc12 [Compound 48, 5-((4-(4-(trifluoromethyl)benzyl)piperazin-1-yl)methyl)quinolin-8-ol]	0	0	–	–	–
O=C(Cc1ccccc1)Nc1ccc(N2CCN(Cc3ccc(O)c4ncccc34)CC2)cc1 [Compound 51, N-(4-(4-((8-hydroxyquinolin-5-yl)methyl)piperazin-1-yl)phenyl)-2-phenylacetamide]	37.2	18.1	–	–	–
Oc1ccc(CN2CCN(c3ccc(F)cc3F)CC2)c2cccnc12 [Compound 62, 5-((4-(2,4-difluorophenyl)piperazin-1-yl)methyl)quinolin-8-ol]	–	–	5.0%	0*%	–
COc1ccc2[nH]cc(C(=O)N3CCOCC3)c2c1 [Compound 63, (5-methoxy-1H-indol-3-yl)(morpholino)methanone]	0	0	–	–	–
COc1ccc2[nH]cc(C(=O)N3CCN(c4ccccc4OC)CC3)c2c1 [Compound 64, (5-methoxy-1H-indol-3-yl)(4-(2-methoxyphenyl)piperazin-1-yl)methanone]	0	0	–	–	–
Oc1ccc(CN2CCCCC2)c2cccnc12 [Compound 68, 5-(piperidin-1-ylmethyl)quinolin-8-ol, reference compound]	–	–	0*%	5.8%	–

Reference: patent publication US20260374739A1, “SMALL MOLECULAR WEIGHT CHEMICAL COMPOUND TO ANTAGONIZE EPH-EPHRIN TETRAMERIZATION AND INHIBIT BIDIRECTIONAL SIGNALING” (THE BOARD OF REGENTS OF THE UNIVERSITY OF TEXAS SYSTEM, priority 2022, published 2026)
